Measurements reported in ChEMBL document CHEMBL1201862, “PubChem BioAssay data set” (2004).
Activity calls are given as the source filed them. Rule as the data show it: active = IC50 of 10 µM or less and inactive = more.

What was measured:
[1] = molecular target: Melanin-concentrating hormone receptor 1 (Homo sapiens, UniProt Q99705); experiment: Late-stage fluorescence-based counterscreen for antagonists of the G-protein coupled receptor 7 (GPR7): cell-based dose response assay to identify antagonists of the melanin-concentrating hormone receptor 1 (MCHR1) Set 6.; assay type: functional
Sequence of Melanin-concentrating hormone receptor 1 (Q99705 whole entry): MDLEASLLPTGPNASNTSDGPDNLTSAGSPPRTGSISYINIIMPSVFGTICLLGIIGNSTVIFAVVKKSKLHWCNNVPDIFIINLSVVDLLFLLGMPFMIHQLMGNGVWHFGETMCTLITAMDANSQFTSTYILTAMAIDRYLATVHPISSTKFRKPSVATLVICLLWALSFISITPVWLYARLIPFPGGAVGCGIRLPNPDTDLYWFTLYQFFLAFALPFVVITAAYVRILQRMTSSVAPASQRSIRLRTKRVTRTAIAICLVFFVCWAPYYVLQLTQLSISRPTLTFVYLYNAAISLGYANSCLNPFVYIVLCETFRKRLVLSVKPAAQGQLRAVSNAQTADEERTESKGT

[2] = molecular target: Neuropeptides B/W receptor type 1 (Homo sapiens, UniProt P48145); experiment: human NPBW1 receptor blockade, IC50 – cell-based, fluorescence, dose response, set 6, late-stage follow-up (AID 588583); assay type: functional
Sequence of Neuropeptides B/W receptor type 1 (P48145 whole entry): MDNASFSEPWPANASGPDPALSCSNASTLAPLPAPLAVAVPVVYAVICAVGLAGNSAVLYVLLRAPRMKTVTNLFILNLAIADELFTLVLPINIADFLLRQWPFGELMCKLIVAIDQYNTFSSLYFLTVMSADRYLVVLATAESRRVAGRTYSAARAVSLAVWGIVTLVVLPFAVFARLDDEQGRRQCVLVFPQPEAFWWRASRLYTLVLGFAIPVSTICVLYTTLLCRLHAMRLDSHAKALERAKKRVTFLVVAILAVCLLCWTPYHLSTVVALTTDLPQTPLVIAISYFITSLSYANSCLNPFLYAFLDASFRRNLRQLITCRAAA

COc1ccc(Oc2c(Cl)cnn(Cc3ccccc3C(=O)O)c2=O)cc1
IC50 [1]: > 20 µM (inactive)
IC50 [2]: > 20 µM (inactive)
